Data taken from patent US6844443B2, “Benzimidazole derivatives, their production and use” (Takeda Pharmaceutical Company, Ltd., priority 1990, dated 2005).

What was measured:
[1] = Heat stability of solid forms (Experimental Example 1); format: physicochemical; conditions: solid form of 1-(cyclohexyloxycarbonyloxy)ethyl ester
From the text: 1-(Cyclohexyloxycarbonyloxy)ethyl 2-ethoxy-1-[[2′-(1 H-tetrazol-5-yl)biphenyl-4-yl]methyl]benzimidazole-7-carboxylate is usually purified by column chromatography on silica gel and the eluted fraction is concentrated to dryness to give amorphous powders. […] For solving this problem, the present inventors made extensive experiments on crystallization of the subject compound and discovered C-type crystalline form. […] The C-type crystal of the title compound has approximately the following lattice spacings: […]

melting point	Compound	heat stability of solid form [1]
85 to 87 °C	CCOC(=O)OC(C)OC(=O)c1cccc2nc(OCC)n(Cc3ccc(-c4ccccc4-c4nnn[nH]4)cc3)c12 (centres unmarked) [Working Example 54, 1-(Ethoxycarbonyloxy)ethyl 2-ethoxy-1-[[2′-(1 H-tetrazol-5-yl)-biphenyl-4-yl]methyl]benzimidazole-7-carboxylate]	–
149 to 152 °C	CCNc1nc2cccc(C(=O)OC(C)OC(=O)OC3CCCCC3)c2n1Cc1ccc(-c2ccccc2-c2nnn[nH]2)cc1 (centres unmarked) [Working Example 63, 1-(Cyclohexyloxycarbonyloxy)ethyl 2-ethylamino-1-[[2′-(1 H-tetrazol-5-yl)biphenyl-4-yl]methyl]benzimidazole-7-carboxylate]	–
136 to 138 °C	CCOc1nc2cccc(C(=O)OCOC(=O)C3CCCC3)c2n1Cc1ccc(-c2ccccc2-c2nnn[nH]2)cc1 [Working Example 61, Cyclopentylcarbonyloxymethyl 2-ethoxy-1-[[2′-(1 H-tetrazol-5-yl)biphenyl-4-yl]methyl]benzimidazole-7-carboxylate]	–
74 to 76 °C	CCOc1nc2cccc(C(=O)OC(C)OC(=O)OC(C)C)c2n1Cc1ccc(-c2ccccc2)c(-c2nnn[nH]2)c1 (centres unmarked) [Working Example 56, 1-(Isopropoxycarbonyloxy)ethyl 2-ethoxy-1-[[2-(1 H-tetrazol-5-yl)biphenyl-4-yl]methyl]benzimidazole-7-carboxylate]	–
130 to 135 °C	CCNc1nc2cccc(C(=O)OCOC(=O)C(C)(C)C)c2n1Cc1ccc(-c2ccccc2-c2nnn[nH]2)cc1 [Working Example 62, Pivaloyloxymethyl 2-ethylamino-1-[[2′-(1 H-tetrazol-5-yl)biphenyl-4-yl]methyl]benzimidazole-7-carboxylate]	–

The next lines start with the molecule.

Compound	melting point	heat stability of solid form [1]
CCOc1nc2cccc(C(=O)OC(C)OC(=O)OC3CCCCC3)c2n1Cc1ccc(-c2ccccc2-c2nnn[nH]2)cc1 (centres unmarked) [amorphous powders, 1-(Cyclohexyloxycarbonyloxy)ethyl 2-ethoxy-1-[[2′-(1 H-tetrazol-5-yl)biphenyl-4-yl]methyl]benzimidazole-7-carboxylate]	–	unstable by heat
CCOc1nc2cccc(C(=O)OC(C)OC(C)=O)c2n1Cc1ccc(-c2ccccc2-c2nnn[nH]2)cc1 (centres unmarked) [Working Example 55, 1-Acetoxyethyl 2-ethoxy-1-[[2′-(1 H-tetrazol-5-yl)biphenyl-4-yl]methyl]benzimidazole-7-carboxylate]	105 to 107 °C	–
CCOc1nc2cccc(C(=O)OCOC(=O)C(C)C)c2n1Cc1ccc(-c2ccccc2-c2nnn[nH]2)cc1 [Working Example 53, Isobutyryloxymethyl 2-ethoxy-1-[[2′-(1 H-tetrazol-5-yl)biphenyl-4-yl]methyl]benzimidazole-7-carboxylate]	143 to 145 °C	–
CCOc1nc2cccc(C(=O)OC(C)OC(=O)OC3CCCCC3)c2n1Cc1ccc(-c2ccccc2-c2nnn[nH]2)cc1 (centres unmarked) [C-type crystal]	–	stable by heat
CCOc1nc2cccc(C(=O)OCOC(C)=O)c2n1Cc1ccc(-c2ccccc2-c2nnn[nH]2)cc1 [Working Example 50, Acetoxymethyl 2-ethoxy-1-[[2′-(1 H-tetrazol-5-yl)biphenyl-4-yl]methyl]benzimidazole-7-carboxylate]	152 to 154 °C (dec.)	–
CCOc1nc2cccc(C(=O)OCOC(=O)CC)c2n1Cc1ccc(-c2ccccc2-c2nnn[nH]2)cc1 [Working Example 51, Propionyloxymethyl 2-ethoxy-1-[[2′-(1 H-tetrazol-5-yl)-biphenyl-4-yl]methyl]benzimidazole-7-carboxylate]	145 to 150 °C (dec.)	–
